Source: paper PMC11928319 (Nature Plants, 2025)
Where no end group is shown, it is not given here.

Columns and labels:
[1] = Peptide quantification by mass spectrometry after incubation in cell-free supernatant of Rhodanobacter R179; assay type: in vitro ADME; conditions: axenic XVM2 medium, 1h, 1 µM AtPep1, NHS-acetate modified, LC-MS [M+2H]
Method: (§1) Elicitors were also supplemented into the medium prior to solidification at a final concentration of 1 µM. The flg22 ([…]) and AtPep1 ([…]) peptides were synthesized by EZbiolab. elf18^R179 (Ac-[…]) and elf18 (Ac-[…]) were synthesized by GenScript and EZbiolab, respectively. For inoculation with the bacterial supernatant, bacteria were cultivated overnight in XVM2 minimal medium (20 mM NaCl, 10 mM (NH4)2SO4, 5 mM MgSO4, 1 mM CaCl2, 0.16 mM KH2PO4, 0.32 mM K2HPO4, 0.01 mM FeSO4, 10 mM fructose, 10 mM sucrose, 0.03% Casamino acids, pH 6.7)[76] to a final concentration of OD600 = 0.4. Bacteria were pelleted by centrifugation (11,600 g, 2 min), and the supernatant was sterile-filtered using filter units with MF-Millipore membrane (0.22 µm; Millex). The supernatant was incubated in boiling water for 30 min for heat treatment. Then, 25 ml of 1× MS with 20 g l^−1 Bacto Agar was mixed with 25 ml of supernatant prior to medium solidification and poured into square petri dishes. Sterilized seeds were placed on solidified agar in square petri dishes and vertically incubated for 14 days.
(§2) Bacterial supernatants were prepared as described in ‘Agar-based cultivation of axenic plants and co-cultivation with bacteria, bacterial supernatants and elicitors’. Here, additionally, the peptides dRGF1 (DYSNPGHHP-Hyp-RHN) and PSY1 (D-Y(SO3H)-[…]-Hyp-Hyp-S) synthesized by Scilight Peptide were incubated for 1 h with 1 µM of peptides in a plant cultivation light chamber (day-light condition; see ‘Plant cultivation conditions’), and the samples were frozen at −20 °C until further processing. For the investigation of AtPep1 degradation, the AtPep1 peptide was first modified by acetylation (six to seven times). To this end, 100-µl aliquots of peptides were treated with 10 µl of NHS acetate solution (1 M NHS acetate in 50% ACN/PBS) and incubated for 30 min with shaking. The reaction was quenched by the addition of 100 µl of 100 mM Tris-HCl (pH 8.5) and incubated for 10 min. For comparison of the non-acetylated peptides with the above-described modified AtPep1 peptides, aliquots of the non-acetylated peptides were processed as described above, but without the modifying NHS reaction. To this end, 100-µl aliquots of the sample were mixed with 100 µl of PBS buffer (137 mM NaCl, 2.7 mM KCl, 10 mM Na2HPO4, 1.8 mM KH2PO4; pH 7.4). The samples were then further diluted with 100 µl of 100 mM Tris-HCl (pH 8.5) and incubated for 10 min. All samples were acidified with 5 µl of TFA and desalted using StageTips with C18 Empore disk membranes (3M)[109]. The samples were dried in a vacuum evaporator and dissolved in 10 µl of 2% ACN (0.1% TFA for analysis).
(§3) The samples were analysed using an EASY-nLC 1200 (Thermo Fisher) coupled to a QExactive Plus mass spectrometer (Thermo Fisher). Peptides were separated on 16-cm frit-less silica emitters (New Objective, 75 µm inner diameter), packed in-house with reversed-phase ReproSil-Pur C18 AQ 1.9 µm resin (Dr. Maisch). Peptides were loaded on the column and eluted for 50 min using a segmented linear gradient of 5% to 95% solvent B (0 min, 5% B; 0–5 min, 15% B; 5–35 min, 50% B; 35–45 min, 95% B; 45–50 min, 95% B) (solvent A: 0% ACN, 0.1% FA; solvent B: 80% ACN, 0.1% FA) at a flow rate of 300 nl min^−1. Mass spectra were acquired in data-dependent acquisition mode with a TOP10 method. Mass spectrometry spectra were acquired in the Orbitrap analyser with a mass range of 300–1,500 m/z at a resolution of 70,000 full width at half maximum (FWHM) and a target value of 3 × 10^6 ions. Precursors were selected with an isolation window of 1.3 m/z. Higher-energy collision dissociation (HCD) fragmentation was performed at a normalized collision energy of 25. Tandem mass spectrometry (MS/MS) spectra were acquired with a target value of 5 × 10^5 ions at a resolution of 17,500 FWHM, a maximum injection time of 85 ms and a fixed first mass of 100 m/z. […]

[2] = test system: filter-sterile supernatant of Rhodanobacter R179 (secreted peptidase(s)); assay: as above; assay type: in vitro ADME; conditions: for peptide detected by mass spectrometry after incubation in supernatant of the R179 dssAB mutant: filter-sterile supernatant of dssAB mutant cultivated in XVM2 (OD600 = 0.4); for peptide detected by mass spectrometry after incubation in supernatant of the R179 dssAB mutant / peptide detected by mass spectrometry after incubation in supernatant of wild-type R179: LC-MS MS1 peak area; for peptide detected by mass spectrometry after incubation in supernatant of wild-type R179: filter-sterile supernatant of wild-type R179 cultivated in XVM2 minimal medium (OD600 = 0.4), light chamber, n = 3 culture supernatants; for Log10(total_area_MS1) / percent_rel_axenic: incubation 1h; for Log10(total_area_MS1): MS1 precursor area; for percent_rel_axenic: peptide relative to axenic; for Total_area MS1 of identified AtPep1 cleavage product (acetylated […]): 1 µM AtPep1, LC-MS [M+2H]; for Total_area MS1 (intact flg22): 1 µM, LC-MS [M+2H]
Method: as §1, §2, §3

[3] = R179 dssAB mutant supernatant, XVM2 medium, replicate 1
[4] = R179 dssAB mutant supernatant, XVM2 medium, replicate 2
[5] = R179 dssAB mutant supernatant, XVM2 medium, replicate 3
[6] = R179 wt supernatant, XVM2 medium, replicate 1
[7] = R179 wt supernatant, XVM2 medium, replicate 2
[8] = R179 wt supernatant, XVM2 medium, replicate 3
[9] = axenic XVM2 medium control, replicate 1
[10] = axenic XVM2 medium control, replicate 2
[11] = axenic XVM2 medium control, replicate 3
[12] = supernatant of wt R179 in XVM2 (OD600 = 0.4), 1h, replicate 1
[13] = supernatant of wt R179 in XVM2 (OD600 = 0.4), 1h, replicate 2
[14] = supernatant of wt R179 in XVM2 (OD600 = 0.4), 1h, replicate 3

| Sequence | peptide detected by mass spectrometry after incubation in supernatant of the R179 dssAB mutant ([2]; 1 µM peptide, 1 h, n = 3) | peptide detected by mass spectrometry after incubation in supernatant of wild-type R179 ([2]; 1 µM peptide, 1 h) | Log10(total_area_MS1) [2, 3] | Log10(total_area_MS1) [2, 4] | Log10(total_area_MS1) [2, 5] | percent_rel_axenic [2, 3] [%] | percent_rel_axenic [2, 4] [%] | percent_rel_axenic [2, 5] [%] | Log10(total_area_MS1) [2, 7] | Log10(total_area_MS1) [2, 8] | percent_rel_axenic [2, 6] [%] | percent_rel_axenic [2, 7] [%] | percent_rel_axenic [2, 8] [%] | Log10(total_area_MS1) [2, 10] | Log10(total_area_MS1) [2, 11] | percent_rel_axenic [2, 10] [%] | percent_rel_axenic [2, 11] [%] | further results |
| --- | --- | --- | --- | --- | --- | --- | --- | --- | --- | --- | --- | --- | --- | --- | --- | --- | --- | --- |
| ATKVKAKQRGKEKVSSGRPGQHN [AtPep1] | depleted | depleted | 6.423 | 6.556 | 5.255 | 0.0095 | 0.0129 | 0.0006 | 5.86 | 6.66 | 0.086 | 0.0026 | 0.0164 | 10.4615 | 10.4458 | 103.993 | 100.296 | Total_area MS1 of identified AtPep1 cleavage product (acetylated […]) ([1]; replicate 2): 0.00E+00; Total_area MS1 of identified AtPep1 cleavage product (acetylated […]) ([1]; replicate 3): 0.00E+00; traces of AtPep1 detected after incubation in R179 supernatants ([2]; 1 µM peptide, 1 h, R179 supernatant in XVM2, AtPep1 acetylated before LC-MS): < 0.01%; Log10(total_area_MS1) [2, 6]: 7.379; Log10(total_area_MS1) [2, 9]: 10.4254; percent_rel_axenic [2, 9]: 95.7106%; Total_area MS1 of identified AtPep1 cleavage product (acetylated […]) ([2]; supernatant of R179 dssAB mutant in XVM2 (OD600 = 0.4), 1h, replicate 1): 2.38E+09; Total_area MS1 of identified AtPep1 cleavage product (acetylated […]) ([2]; supernatant of R179 dssAB mutant in XVM2 (OD600 = 0.4), 1h, replicate 2): 1.79E+09; Total_area MS1 of identified AtPep1 cleavage product (acetylated […]) ([2]; supernatant of R179 dssAB mutant in XVM2 (OD600 = 0.4), 1h, replicate 3): 2.15E+09; Total_area MS1 of identified AtPep1 cleavage product (acetylated […]) [2, 12]: 1.79E+09; Total_area MS1 of identified AtPep1 cleavage product (acetylated […]) [2, 13]: 1.66E+09; Total_area MS1 of identified AtPep1 cleavage product (acetylated […]) [2, 14]: 1.89E+09 |
| QRLSTGSRINSAKDDAAGLQIA [flg22] | efficient and rapid (1 h) proteolytic degradation | efficient and rapid (1 h) proteolytic degradation | 0 | 0 | 0 | 0 | 0 | 0 | 0 | 0 | 0 | 0 | 0 | 8.543 | 8.745 | 75.7327 | 120.41 | peptide detected by mass spectrometry after incubation in heat-treated supernatant of wild-type R179 ([2]; 1 µM peptide, 1 h, supernatant boiled 30 min, XVM2, LC-MS MS1 peak area, n = 3): detected; Total_area MS1 (intact flg22) ([2]; axenic XVM2 medium, 1h, replicate 2): 3.04E+08; Total_area MS1 (intact flg22) ([2]; axenic XVM2 medium, 1h, replicate 3): 4.20E+08; Total_area MS1 (intact flg22) ([2]; heat-treated (HK-wt) supernatant of wt R179 in XVM2, 1h, replicate 1): 1.96E+09; Total_area MS1 (intact flg22) ([2]; heat-treated (HK-wt) supernatant of wt R179 in XVM2, 1h, replicate 2): 3.13E+09; Total_area MS1 (intact flg22) ([2]; heat-treated (HK-wt) supernatant of wt R179 in XVM2, 1h, replicate 3): 9.82E+08; Total_area MS1 (intact flg22) [2, 12]: 0.00E+00; Total_area MS1 (intact flg22) [2, 13]: 0.00E+00; Total_area MS1 (intact flg22) [2, 14]: 0.00E+00 |
